Among the data in ChEMBL document CHEMBL1132857, “Synthesis and binding studies of some epibatidine analogues” (Bioorg Med Chem Lett, 2000) are IC50 and Activity values, retold here.

Assay [1] concerns the target T1, Muscarinic acetylcholine receptor M2 (Rattus norvegicus, UniProt P10980).
T1 sequence (P10980 whole entry): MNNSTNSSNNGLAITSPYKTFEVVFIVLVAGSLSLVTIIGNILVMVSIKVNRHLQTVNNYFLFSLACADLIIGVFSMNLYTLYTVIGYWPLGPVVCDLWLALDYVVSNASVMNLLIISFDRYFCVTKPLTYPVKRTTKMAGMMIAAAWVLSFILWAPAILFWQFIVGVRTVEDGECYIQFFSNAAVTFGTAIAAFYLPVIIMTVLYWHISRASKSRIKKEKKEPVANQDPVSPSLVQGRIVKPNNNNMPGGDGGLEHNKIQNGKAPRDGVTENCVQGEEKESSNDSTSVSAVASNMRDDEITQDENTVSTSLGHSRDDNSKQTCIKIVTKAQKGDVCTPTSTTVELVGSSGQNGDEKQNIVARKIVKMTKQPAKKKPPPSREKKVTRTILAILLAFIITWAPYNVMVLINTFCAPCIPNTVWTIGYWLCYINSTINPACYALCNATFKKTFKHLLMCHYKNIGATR

The nature of assay [2]: Inhibition of binding of [3H]nicotine to neural nicotinic cholinergic receptor in rat brain membranes at 10e-5 M of compound concentration. It is filed as cell membranes.
Assay [3] concerns the target T2, Muscarinic acetylcholine receptor M1 (Rattus norvegicus, UniProt P08482).
T2 sequence (P08482 whole entry): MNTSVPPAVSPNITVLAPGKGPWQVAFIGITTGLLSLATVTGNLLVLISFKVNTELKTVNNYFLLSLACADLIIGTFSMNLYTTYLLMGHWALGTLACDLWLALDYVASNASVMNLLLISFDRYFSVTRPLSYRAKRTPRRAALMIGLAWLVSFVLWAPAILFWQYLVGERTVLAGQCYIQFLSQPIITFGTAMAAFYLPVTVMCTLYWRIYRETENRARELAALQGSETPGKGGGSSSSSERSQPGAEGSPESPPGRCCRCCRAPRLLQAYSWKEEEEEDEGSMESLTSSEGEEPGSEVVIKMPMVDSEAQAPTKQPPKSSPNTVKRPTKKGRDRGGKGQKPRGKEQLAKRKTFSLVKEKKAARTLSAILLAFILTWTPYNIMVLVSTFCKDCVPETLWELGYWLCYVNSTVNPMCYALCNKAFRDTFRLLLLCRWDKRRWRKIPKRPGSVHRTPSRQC
Put plainly: Inhibition of binding of [3H]quinuclidinyl benzilate to Muscarinic acetylcholine receptor M1 in rat brain cortex at 10e-5 M of compound concentration. It is filed as tissue-based.

In assay [4] the target is 5-hydroxytryptamine receptor 1B (Rattus norvegicus) (UniProt P28564). Put plainly: Inhibition of [3H]5-HT binding to 5-hydroxytryptamine 1B receptor in rat striatum; Less active. It is filed as tissue-based.
Assay [5] concerns the target T3, 5-hydroxytryptamine receptor 1A (Rattus norvegicus) (UniProt P19327).
T3 sequence (whole entry): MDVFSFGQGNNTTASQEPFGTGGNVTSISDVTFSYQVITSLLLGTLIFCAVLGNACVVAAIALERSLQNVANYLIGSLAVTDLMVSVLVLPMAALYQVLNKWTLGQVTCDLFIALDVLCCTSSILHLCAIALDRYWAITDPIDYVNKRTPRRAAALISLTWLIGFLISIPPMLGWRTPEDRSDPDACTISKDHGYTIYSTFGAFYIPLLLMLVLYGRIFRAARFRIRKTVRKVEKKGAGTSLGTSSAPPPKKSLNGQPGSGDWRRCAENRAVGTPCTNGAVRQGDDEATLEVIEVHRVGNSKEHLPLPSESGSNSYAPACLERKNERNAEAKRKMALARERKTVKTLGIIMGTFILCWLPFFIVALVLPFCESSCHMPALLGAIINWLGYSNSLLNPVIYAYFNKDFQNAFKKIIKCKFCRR
Put plainly: Inhibition of [3H]8-hydroxy-2-dipropylamino-1,2,3,4-tetrahydronaphthalene binding to 5-hydroxytryptamine 1A receptor in hippocampus region of rat brain; Less active. The class given is tissue-based.

The target of assay [6] is T4, Muscarinic acetylcholine receptor M2 (Rattus norvegicus) (UniProt P10980).
T4 sequence (whole entry): T1 sequence (P10980 whole entry)
Put plainly: Inhibition of binding of [3H]quinuclidinyl benzilate to Muscarinic acetylcholine receptor M2 in rat heart atria at 10e-5 M of compound concentration; Less active.

Assay [7] deals with T5, Muscarinic acetylcholine receptor M1 (Rattus norvegicus) (UniProt P08482).
T5 sequence (whole entry): T2 sequence (P08482 whole entry)
Put plainly: Inhibition of binding of [3H]quinuclidinyl benzilate to Muscarinic acetylcholine receptor M1 in rat brain cortex at 10e-5 M of compound concentration; Less active. It is filed as tissue-based.

For assay [8], the species on record is Rattus norvegicus. Put plainly: Inhibition of binding of [3H]-nicotine to neural nicotinic cholinergic receptor in rat brain membranes at 10e-5 M of compound concentration; Less active. It is filed as cell membranes.
Assay [9] deals with T1, Muscarinic acetylcholine receptor M2. Put plainly: Inhibition of binding of [3H]quinuclidinyl benzilate to Muscarinic acetylcholine receptor M2 in rat heart atria at 10e-5 M of compound concentration.
Assay [10] addresses T2, Muscarinic acetylcholine receptor M1. The class given is tissue-based, Brain.
Assay [11] shares this target. Put plainly: Inhibition of binding of [3H]quinuclidinyl benzilate to Muscarinic acetylcholine receptor M1 in rat brain cortex at 10e-5 M of compound concentration; Residual radioligand binding higher than 80%. It is filed as tissue-based.
Assay [12] is filed under the species Rattus norvegicus. Put plainly: Inhibition of binding of [3H]nicotine to neural nicotinic cholinergic receptor in rat brain membranes at 10e-5 M of compound concentration; Less active. It is filed as cell membranes.
The target of assay [13] is T4, Muscarinic acetylcholine receptor M2 (Rattus norvegicus). Put plainly: Inhibition of binding of [3H]quinuclidinyl benzilate to Muscarinic acetylcholine receptor M2 in rat heart atria at 10e-5 M of compound concentration. Less active.

5-hydroxytryptamine receptor 1B (Rattus norvegicus), sequence (P28564 whole entry): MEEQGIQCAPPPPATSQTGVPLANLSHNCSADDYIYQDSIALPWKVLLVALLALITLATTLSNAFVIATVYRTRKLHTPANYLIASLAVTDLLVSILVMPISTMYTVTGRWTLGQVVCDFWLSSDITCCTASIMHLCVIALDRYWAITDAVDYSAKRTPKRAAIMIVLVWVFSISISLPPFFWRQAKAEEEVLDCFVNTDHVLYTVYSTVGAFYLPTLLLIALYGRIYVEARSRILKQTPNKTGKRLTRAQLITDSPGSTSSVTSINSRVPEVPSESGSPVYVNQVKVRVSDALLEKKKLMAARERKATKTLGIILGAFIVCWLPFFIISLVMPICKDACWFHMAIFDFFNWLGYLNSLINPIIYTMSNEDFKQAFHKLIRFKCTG

In general, IC50 refers to the concentration that gives 50% inhibition. On to `CN1C2C=C(c3cccc(Cl)n3)CC1CC2.O=C(O)/C=C\C(=O)O` (stereo unspecified), for which the IC50 entry is “Not Active” in [1], 264 nM in assay [2] and 1850 nM in [3].

Take `CCOC(=O)N1C2CCC1CC(O)(c1ccc(Cl)nc1)C2` (stereo unspecified): the Activity result in assay [4], in assay [5], in assay [6], in assay [7] and in assay [8] was “Weak activity” each time.

Consider `CN1C2CCC1CC(O)(c1ccc(Cl)nc1)C2` (stereo unspecified), for which the Activity entry in assay [4], in [5], in assay [6], in assay [7] and in assay [8] was “Weak activity” throughout.

For `CN1CCC=C(c2ccc(Cl)nc2)C1.O=C(O)/C=C\C(=O)O`, the figures for the IC50 in assay [9], in assay [2] and in assay [10] were 3510 nM, 2.2 nM and “Not Active”, respectively.

With `CN1CCC(O)(c2ccc(Cl)nc2)CC1`, the Activity entry in assay [4], in assay [5], in assay [6], in assay [7] and in assay [8] was “Weak activity” each time.

In the case of `Cl.Clc1cccc(C2=CC3CCC(C2)N3)n1` (stereo unspecified), the IC50 result is “Not Active” in [1], 212 nM in assay [2] and “Not Active” in assay [11].

Regarding `CCOC(=O)N1C2CCC1CC(O)(c1ccc(Cl)cn1)C2` (stereo unspecified), the Activity entry in assay [4], in [5], in assay [6], in assay [7] and in assay [12] was “Weak activity” each time.

As to `CN1C2CCC1CC(O)(c1ccc(Cl)cn1)C2` (stereo unspecified), the Activity result in [4], in [5], in assay [13], in assay [7] and in [12] was “Weak activity” each time.

As for `CN1C2C=C(c3ccc(Cl)cn3)CC1CC2` (stereo unspecified), the Activity entry in [4], in assay [5], in [6], in assay [7] and in assay [8] was “Weak activity” in each case.

As for `CCOC(=O)OC1(c2ccc(Cl)nc2)CCN(C)CC1`, the Activity result in assay [4], in assay [5], in assay [6], in assay [7] and in assay [8] was “Weak activity” each time.

For the compound `Clc1ccc(C2=CC3CCC(C2)N3)cn1.O=C(O)/C=C\C(=O)O` (stereo unspecified), the IC50 result in assay [1] is “Not Active”; in assay [2], 1.7 nM; in assay [11], “Not Active”.

As to `CN1C2CCC1CC(O)(c1cccc(Cl)n1)C2` (stereo unspecified), the Activity entry in assay [4], in [5], in [6], in [7] and in [8] was “Weak activity” in each case.

Take `CN1CC=C(c2ccc(Cl)nc2)CC1.Cl`: the IC50 result is “Not Active” in assay [1], 12.5 nM in assay [2] and “Not Active” in [10].

As to `CCOC(=O)N1C2CCC1CC(O)(c1cccc(Cl)n1)C2` (stereo unspecified), the Activity entry in assay [4], in [5], in assay [6], in assay [7] and in assay [12] was “Weak activity” in each case.

Consider `CN1C2C=C(c3ccc(Cl)nc3)CC1CC2` (stereo unspecified), for which the values for the IC50 in [9], in assay [2] and in [3] were 4180 nM, 1.8 nM and 2140 nM, respectively.

Consider `C[n+]1cccc(-c2ccc(Cl)nc2)c1.[I-]`, for which the IC50 result in [1] was “Not Active”; in assay [2], 77 nM; in [10] it was “Not Active”.

As to `Clc1ccc(-c2cccnc2)cn1`, the Activity entry in assay [4], in assay [5], in assay [6], in assay [7] and in [12] was “Weak activity” in each case.
